Biological target: T1, human Nav1.7 channels (Homo sapiens, UniProt Q15858)
T1 construct: expressed in transfected cells; host or cells: CHO
Test: FRET assay, human Nav1.7 (EFS on FDSS)
Format: cell-based
Settings: CHO cells expressing human Nav1.7, read-out: IC50 against Nav1.7
Method: The inhibitory activities of compounds against voltage gated sodium channels are determined by methodology well known in the art.
The ability of the aryl substituted carboxamide derivatives of the formula (I) to inhibit the NaV1.3, Nav1.7 and Nav1.5 channels is measured by Fluorescence Resonance Energy Transfer (FRET) assay and electrophysiology assay described below.
This screen is used to determine the effects of compounds on human Nav1.3, human Nav1.7, and human Nav1.5 channels, utilising electrical field stimulation (EFS) system in 96-well plate format on FDSS (Hamamatsu Photonics) platform. The change of membrane potential is monitored with FRET dye pair, oxonol (DiSBAC2(3)) and coumarin (CC2-DMPE).
CHO cells expressing human Nav1.7 channels are grown in T225 flasks, in a 5% CO2 humidified incubator to about 80% confluence. Media composition consists of HAM/F12 with Glutamax 1.10% FCS, 100 units/mL Penicillin and 100 microgram/mL Hygromycin.
Protocol: • Seed each cell lines (1×10^5 cells/well) into poly-D-lysine coated 96-well plates prior to experimentation. • Incubate at 37° C. in 5% CO2 for 24 hours. • Wash each well with assay buffer (140 mM NaCl, 4.5 mM KCl, 10 mM D-Glucose, 2 mM CaCl2, 1 mM MgCl2, 10 mM HEPES, pH 7.4 adjusted with NaOH) twice. • Add 1st loading solution containing 10 microM CC2-DMPE and 0.06% Pluronic F-127 in assay buffer. • Incubate the plate at room temperature in dark for 1 hour. • Remove 1st loading solution and added 2nd loading solution containing 15 microM DiSBAC2(3), 0.555 mM VABSC-1 and 0.004% Pluronic F-127 in assay buffer. • Place the plate under the dark at room temperature for 25 minutes. • Add compound solutions into the assay plate. • Set the assay plate in FDSS and placed an EFS device on the plate. • Measure EFS-induced fluorescent response by FDSS.
The data are analyzed and reported as normalized ratios of intensities measured at […]. The process of calculating these ratios is performed as follows:
This analysis is performed using a computerized specific program designed for FDSS generated data. Fluorescence ratio values are plotted using XLfit to determine an IC50 value for each compound.

T1 sequence (Q15858 whole entry): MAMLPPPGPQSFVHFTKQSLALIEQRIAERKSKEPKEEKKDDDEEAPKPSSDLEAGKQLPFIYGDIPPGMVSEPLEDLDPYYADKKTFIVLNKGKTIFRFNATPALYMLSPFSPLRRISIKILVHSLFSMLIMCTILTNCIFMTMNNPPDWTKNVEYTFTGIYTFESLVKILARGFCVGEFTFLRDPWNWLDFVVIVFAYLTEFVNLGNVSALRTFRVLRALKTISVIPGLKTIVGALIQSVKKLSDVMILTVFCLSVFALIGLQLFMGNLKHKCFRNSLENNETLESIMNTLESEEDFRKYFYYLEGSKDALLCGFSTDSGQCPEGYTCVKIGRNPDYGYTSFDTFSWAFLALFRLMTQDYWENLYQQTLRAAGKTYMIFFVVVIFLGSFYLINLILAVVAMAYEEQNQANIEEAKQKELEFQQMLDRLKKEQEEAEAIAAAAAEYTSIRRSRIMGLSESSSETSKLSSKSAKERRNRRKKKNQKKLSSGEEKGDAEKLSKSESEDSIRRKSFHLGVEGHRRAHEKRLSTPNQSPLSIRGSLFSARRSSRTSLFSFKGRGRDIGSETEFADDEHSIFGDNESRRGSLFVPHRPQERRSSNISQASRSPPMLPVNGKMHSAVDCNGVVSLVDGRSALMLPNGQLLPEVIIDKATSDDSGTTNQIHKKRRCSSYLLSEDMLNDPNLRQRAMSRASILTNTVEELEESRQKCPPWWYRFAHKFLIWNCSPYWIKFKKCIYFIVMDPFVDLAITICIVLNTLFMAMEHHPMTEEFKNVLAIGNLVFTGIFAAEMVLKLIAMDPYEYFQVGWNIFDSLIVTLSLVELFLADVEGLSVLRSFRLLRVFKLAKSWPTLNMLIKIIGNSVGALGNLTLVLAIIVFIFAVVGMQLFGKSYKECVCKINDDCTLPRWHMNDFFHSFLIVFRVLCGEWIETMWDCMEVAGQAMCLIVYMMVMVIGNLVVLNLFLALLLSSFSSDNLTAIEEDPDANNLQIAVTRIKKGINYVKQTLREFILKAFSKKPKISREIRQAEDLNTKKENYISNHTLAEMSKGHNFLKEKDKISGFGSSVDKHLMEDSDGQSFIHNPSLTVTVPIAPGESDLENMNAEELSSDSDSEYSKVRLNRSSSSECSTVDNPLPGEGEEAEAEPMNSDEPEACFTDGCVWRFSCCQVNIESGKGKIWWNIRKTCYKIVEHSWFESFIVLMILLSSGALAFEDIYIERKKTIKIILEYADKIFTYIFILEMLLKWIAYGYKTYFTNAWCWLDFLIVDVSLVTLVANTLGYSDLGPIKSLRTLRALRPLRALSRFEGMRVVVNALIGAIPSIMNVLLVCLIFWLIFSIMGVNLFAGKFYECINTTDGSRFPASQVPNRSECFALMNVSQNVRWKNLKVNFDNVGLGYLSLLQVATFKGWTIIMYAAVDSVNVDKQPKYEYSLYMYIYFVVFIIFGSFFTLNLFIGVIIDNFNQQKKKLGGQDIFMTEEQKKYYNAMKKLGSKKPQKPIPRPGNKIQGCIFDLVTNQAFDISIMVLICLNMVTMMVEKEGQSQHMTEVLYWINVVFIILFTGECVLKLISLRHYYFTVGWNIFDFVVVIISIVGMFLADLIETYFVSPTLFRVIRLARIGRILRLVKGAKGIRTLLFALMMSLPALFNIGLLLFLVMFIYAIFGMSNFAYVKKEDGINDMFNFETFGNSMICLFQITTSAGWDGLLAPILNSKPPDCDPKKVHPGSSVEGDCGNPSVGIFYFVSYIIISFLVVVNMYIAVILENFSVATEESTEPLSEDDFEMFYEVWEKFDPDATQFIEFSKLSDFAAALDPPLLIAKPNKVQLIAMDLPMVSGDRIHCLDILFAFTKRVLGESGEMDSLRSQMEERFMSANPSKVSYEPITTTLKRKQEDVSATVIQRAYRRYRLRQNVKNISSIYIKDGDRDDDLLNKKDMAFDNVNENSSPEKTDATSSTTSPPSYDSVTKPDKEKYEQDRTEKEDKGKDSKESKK

SMILES	IC50 [µM]
O=C(NCc1cnc(OCC(F)F)c(Cl)c1)c1ccnc(NC(=O)C2CC2)c1 [Example 705, N-((5-chloro-6-(2,2-difluoroethoxy)pyridin-3-yl)methyl)-2-(cyclopropanecarboxamido)isonicotinamide]	< 1
CCC(=O)Nc1cc(C(=O)NC(C)c2cnc(OCC(F)(F)F)c(F)c2)ccn1 (single isomer, unassigned) [Example 74, N-(1-(5-fluoro-6-(2,2,2-trifluoroethoxy)pyridin-3-yl)ethyl)-2-propionamidoisonicotinamide]	< 1
CC(=O)Nc1cc(C(=O)NCc2cnc(OCC(F)F)cc2C)cc(C)n1 [Example 778, 2-acetamido-N-((6-(2,2-difluoroethoxy)-4-methylpyridin-3-yl)methyl)-6-methylisonicotinamide]	< 1
Cc1cc(C(=O)NC(C)c2cnc(OCC(F)F)c(C)c2)cc(NC(=O)C2CC2)n1 (single isomer, unassigned) [Example 938, 2-(cyclopropanecarboxamido)-N-(1-(6-(2,2-difluoroethoxy)-5-methylpyridin-3-yl)ethyl)-6-methylisonicotinamide]	< 1
CC(=O)Nc1cc(C(=O)NCc2cccc(C(F)(F)F)c2)cc(C)n1 [Example 532, 2-acetamido-6-methyl-N-(3-(trifluoromethyl)benzyl)isonicotinamide]	< 1
COc1cc(OC(F)(F)F)ccc1CNC(=O)c1cc(C)nc(NC(=O)C(C)C)c1 [Example 871, 2-isobutyramido-N-(2-methoxy-4-(trifluoromethoxy)benzyl)-6-methylisonicotinamide]	< 1
CCCC(=O)Nc1cc(C(=O)NC(C)c2ccc(OCC(F)(F)F)nc2)ccn1 (single isomer, unassigned) [Example 40, 2-butyramido-N-(1-(6-(2,2,2-trifluoroethoxy)pyridin-3-yl)ethyl)isonicotinamide]	< 1
CC(NC(=O)c1ccnc(NC(=O)C2CC2)c1)c1cnc(OCC(F)(F)F)c(Cl)c1 (single isomer, unassigned) [Example 79, N-(1-(5-chloro-6-(2,2,2-trifluoroethoxy)pyridin-3-yl)ethyl)-2-(cyclopropanecarboxamido)isonicotinamide]	< 1
Cc1cc(C(=O)NCc2ccc(OCC(F)F)cc2Cl)cc(NC(=O)C(C)C)n1 [Example 1049, N-(2-chloro-4-(2,2-difluoroethoxy)benzyl)-2-isobutyramido-6-methylisonicotinamide]	< 1
Cc1cc(C(=O)NC(C)c2cccc(OC(F)(F)F)c2)cc(NC(=O)C(C)(C)O)n1 (single isomer, unassigned) [Example 421, 2-(2-hydroxy-2-methylpropanamido)-6-methyl-N-(1-(3-(trifluoromethoxy)phenyl)ethyl)isonicotinamide]	< 1
CCC(=O)Nc1cc(C(=O)NCc2ccc(OCC(F)(F)F)nc2N2CCOCC2)cc(C)n1 [Example 284, 2-methyl-N-((2-morpholino-6-(2,2,2-trifluoroethoxy)pyridin-3-yl)methyl)-6-propionamidoisonicotinamide]	< 1
Cc1cc(C(=O)N[C@H](C)c2cccc(C(F)(F)F)c2)cc(NC(=O)C(C)C)n1 (single isomer, unassigned) [Example 531]	< 1
CCC(=O)Nc1cc(C(=O)NCc2cccc(C(F)(F)F)c2F)ccn1 [Example 1012, N-(2-fluoro-3-(trifluoromethyl)benzyl)-2-propionamidoisonicotinamide]	< 1
Cc1cc(C(=O)NC(C)c2cnc(OCC(F)(F)F)c(Cl)c2)nc(NC(=O)C(C)C)n1 (single isomer, unassigned) [Example 216, N-(1-(5-chloro-6-(2,2,2-trifluoroethoxy)pyridin-3-yl)ethyl)-2-isobutyramido-6-methylpyrimidine-4-carboxamide]	< 1

Now from value to compound:

IC50 [µM]	SMILES
< 1	CC(=O)Nc1cc(C(=O)NCc2ccc(OCC(F)F)c(C)c2)cc(C)n1 [Example 993, 2-acetamido-N-(4-(2,2-difluoroethoxy)-3-methylbenzyl)-6-methylisonicotinamide]
< 1	CCC(=O)Nc1cc(C(=O)NCc2ccnc(OCC(F)(F)F)c2)cc(C)n1 [Example 137, 2-methyl-6-propionamido-N-((2-(2,2,2-trifluoroethoxy)pyridin-4-yl)methyl)isonicotinamide]
< 1	Cc1cc(C(=O)NCc2ccc(OCC(F)F)c(C)c2)nc(NC(=O)C2CC2)n1 [Example 996, 2-(cyclopropanecarboxamido)-N-(4-(2,2-difluoroethoxy)-3-methylbenzyl)-6-methylpyrimidine-4-carboxamide]
< 1	CC(=O)Nc1cc(C(=O)NC(C)c2cnc(OCC(F)(F)C(F)F)c(C)c2)ccn1 (single isomer, unassigned) [Example 903, 2-acetamido-N-(1-(5-methyl-6-(2,2,3,3-tetrafluoropropoxy)pyridin-3-yl)ethyl)isonicotinamide]
< 1	COc1nc(OCC(F)F)ccc1CNC(=O)c1cc(C)nc(NC(C)=O)c1 [Example 1156, 2-acetamido-N-((6-(2,2-difluoroethoxy)-2-methoxypyridin-3-yl)methyl)-6-methylisonicotinamide]
< 1	Cc1cc(C(=O)NC(C)c2ccc(OCC(C)(F)F)nc2)cc(NC(=O)C2CC2)n1 (single isomer, unassigned) [Example 1064]
< 1	CCC(=O)Nc1cc(C(=O)NCc2cc(F)c(OCC(F)(F)F)nc2C)cc(C)n1 [Example 313, N-((5-fluoro-2-methyl-6-(2,2,2-trifluoroethoxy)pyridin-3-yl)methyl)-2-methyl-6-propionamidoisonicotinamide]
< 1	CCc1cc(CNC(=O)c2cc(C)nc(NC(C)=O)c2)cnc1OCC(F)F [Example 932, 2-acetamido-N-((6-(2,2-difluoroethoxy)-5-ethylpyridin-3-yl)methyl)-6-methylisonicotinamide]
< 1	CC(=O)Nc1cc(C(=O)NCc2cnc(OCC(F)F)c(Cl)c2)cc(C)n1 [Example 706, 2-acetamido-N-((5-chloro-6-(2,2-difluoroethoxy)pyridin-3-yl)methyl)-6-methylisonicotinamide]
< 1	CC(=O)Nc1cc(C(=O)NC(C)c2cc(C(F)(F)F)ccc2F)ccn1 (single isomer, unassigned) [Example 1096, 2-acetamido-N-(1-(2-fluoro-5-(trifluoromethyl)phenyl)ethyl)isonicotinamide]
< 1	CCC(=O)Nc1cc(C(=O)NCc2cnc(OCC(F)(F)F)cc2C)cc(C)n1 [Example 179, 2-methyl-N-((4-methyl-6-(2,2,2-trifluoroethoxy)pyridin-3-yl)methyl)-6-propionamidoisonicotinamide]
< 1	COc1cc(CNC(=O)c2ccnc(NC(=O)C3CC3)n2)cnc1OCC(F)(F)F [Example 444, 2-(cyclopropanecarboxamido)-N-((5-methoxy-6-(2,2,2-trifluoroethoxy)pyridin-3-yl)methyl)pyrimidine-4-carboxamide]
< 1	Cc1cc(C(=O)NCc2ccc(OCC(F)(F)F)nc2)cc(NC(=O)C2CC2)n1 [Example 822, 2-(cyclopropanecarboxamido)-6-methyl-N-((6-(2,2,2-trifluoroethoxy)pyridin-3-yl)methyl)isonicotinamide]
< 1	CC(=O)Nc1cc(C(=O)NC(C)c2cnc(OCC(F)(F)F)c(Cl)c2)ccn1 (single isomer, unassigned) [Example 52, 2-acetamido-N-(1-(5-chloro-6-(2,2,2-trifluoroethoxy)pyridin-3-yl)ethyl)isonicotinamide]
< 1	CCOc1nc(OCC(F)(F)F)ccc1CNC(=O)c1ccnc(NC(=O)C(C)C)c1 [Example 335, N-((2-ethoxy-6-(2,2,2-trifluoroethoxy)pyridin-3-yl)methyl)-2-isobutyramidoisonicotinamide]
< 1	CCOc1cc(CNC(=O)c2cc(C)nc(NC(C)=O)c2)cnc1OCC(F)(F)F [Example 264, 2-acetamido-N-((5-ethoxy-6-(2,2,2-trifluoroethoxy)pyridin-3-yl)methyl)-6-methylisonicotinamide]
< 1	CCOc1nc(OCC(F)(F)F)ccc1CNC(=O)c1ccnc(NC(C)=O)c1 [Example 332, 2-acetamido-N-((2-ethoxy-6-(2,2,2-trifluoroethoxy)pyridin-3-yl)methyl)isonicotinamide]
< 1	Cc1cc(C(=O)NCc2cnc(OCC(F)F)c(Cl)c2)cc(NC(=O)C2CC2)n1 [Example 826, N-((5-chloro-6-(2,2-difluoroethoxy)pyridin-3-yl)methyl)-2-(cyclopropanecarboxamido)-6-methylisonicotinamide]

— US9302991B2, “Arylamide derivatives as TTX-S blockers” (RaQualia Pharma Inc., priority 2010, dated 2016)
